The numbers were not newly measured in patent US20210145863A1, “LUBRICATED SUBSTRATES COMPRISING LAMBDA-CARRAGEENAN” (priority 2018, published 2021), which cites them from elsewhere.

The series has as its system HPV. The following applies: in vitro (Buck, C. B., et al.).

lambda-carrageenan: the “Activity against HPV” value is “active”.
